Experimental data: US20180243290A1, “MORPHINAN COMPOUNDS FOR TREATING AGITATION” (Concert Pharmaceuticals, Inc., priority 2015, published 2018)

Assays:
[1] = Metabolic stability in extensive metabolizer human liver microsomes with and without quinidine; format: in vitro ADME; settings: for CLint scaled at 100 ng/mL / half-life at 100 ng/mL: human; for CLint scaled at 100 ng/mL / Clint, app Ratio (respective to 0 concentration of Quinidine) / t1/2 Ratio (respective to 0 concentration of Quinidine) / % Δ (D6-Dimemorfan/Dimemorfan) of t1/2 / Clint, app Ratio (D6-Dimemorfan/Dimemorfan): EM HLM; for half-life at 100 ng/mL: EM HLM 1.0 mg/mL, 100 ng/mL test compound, 60 min
Method: Individual donor with extensive metabolizer human liver microsomes (EM HLM) (20 mg/mL) with CYP2D6 activity of 957±19 pmol/mg protein/min, genotyped for CYP2D6 allelic variant-CYP2D6*1/*2x2, were obtained from Xenotech, LLC (Lenexa, Kans.). β-nicotinamide adenine dinucleotide phosphate, reduced form (NADPH), magnesium chloride (MgCl2), dimethyl sulfoxide (DMSO), acetonitrile (ACN), quinidine, and dextromethorphan (DM) were purchased from Sigma-Aldrich. Dimemorfan and d6-dimemorfan (Compound 100) were synthesized by Adesis, Inc.
1.0 mg/mL stock solutions of test compounds dextromethorphan (DM), dimemorfan, and d6-dimemorfan (Compound 100) were prepared in DMSO. The 1.0 mg/mL stock solutions were diluted to 10,000 ng/mL in acetonitrile (ACN). A 10 mM stock solution of quinidine was prepared in acetonitrile, which was then diluted further in acetonitrile to produce 20 μM, 10 μM, 5 μM, 2.5 μM, and 1.25 μM solutions of quinidine. The human liver microsomes were diluted to 1.25 mg/mL in 0.1 M potassium phosphate buffer, pH 7.4, containing 3 mM MgCl2. The diluted microsomes were added to wells of a 96-well deep-well polypropylene plate in triplicate. A 5 μL aliquot of each 10,000 ng/mL test compound was added to the microsomes, and the mixture was pre-warmed at 37° C. for 7 minutes, then a 5 μL aliquot of each quinidine solution was added (except in control wells where no quinidine was added). Reactions were initiated by addition of pre-warmed NADPH solution to the mixture. The final reaction volume was 0.5 mL and contained 1.0 mg/mL human liver microsomes, 100 ng/mL of test compound, 0.2, 0.1, 0.05, 0.025, 0.0125, or 0 μM of quinidine, and 2 mM NADPH in 0.1 M potassium phosphate buffer, pH 7.4, and 3 mM MgCl2. The reaction mixtures were incubated at 37° C., and 50 μL aliquots were removed at 0, 15, 30, and 60 minutes and added to shallow-well 96-well plates which contained 50 μL of ice-cold ACN with internal standard to stop the reactions. The plates were stored at 4° C. for 20 minutes after which 100 μL of water was added to the wells of the plate before centrifugation to pellet precipitated proteins. Supernatants were transferred to another 96-well plate and analyzed for amounts of parent remaining by LC-MS/MS using an Applied Bio-systems mass spectrometer. Amount of parent remaining was quantified via standard curve.
The in vitro till's for test compounds were calculated from the slopes of the linear regression of % parent remaining (1n) vs. incubation time relationship.
k=−[slope of linear regression of % parent remaining(ln) vs incubation time]
The apparent intrinsic clearance was calculated using the following equation:
CLint (mL/min/kg)=(0.693/in vitro t1/2) (Incubation Volume/mg of microsomes) • (45 mg microsomes/gram of liver) (20 gm of liver/kg b.w.)
Data analysis was performed using Microsoft Excel Software.

[2] = healthy human males; cited from earlier work
[3] = pH 7.4, with none (quinidine 0 µM, control), quinidine 0 μM
[4] = pH 7.4, with quinidine 0.0125 µM, quinidine 0.0125 μM
[5] = pH 7.4, with quinidine 0.025 µM, quinidine 0.025 μM
[6] = pH 7.4, with quinidine 0.05 µM, quinidine 0.05 μM
[7] = pH 7.4, with quinidine 0.1 µM, quinidine 0.1 μM
[8] = pH 7.4, with quinidine 0.2 µM, quinidine 0.2 μM

Structure (SMILES)	CLint scaled at 100 ng/mL [1, 3]	half-life at 100 ng/mL [1, 3]	CLint scaled at 100 ng/mL [1, 4]	half-life at 100 ng/mL [1, 4]	CLint scaled at 100 ng/mL [1, 5]	half-life at 100 ng/mL [1, 5]	CLint scaled at 100 ng/mL [1, 6]	half-life at 100 ng/mL [1, 6]	CLint scaled at 100 ng/mL [1, 7]	half-life at 100 ng/mL [1, 7]	CLint scaled at 100 ng/mL [1, 8]	half-life at 100 ng/mL [1, 8]	Clint, app Ratio (respective to 0 concentration of Quinidine) ([1]; quinidine 0 μM)	t1/2 Ratio (respective to 0 concentration of Quinidine) ([1]; quinidine 0 μM)	Clint, app Ratio (respective to 0 concentration of Quinidine) ([1]; quinidine 0.0125 μM)	t1/2 Ratio (respective to 0 concentration of Quinidine) ([1]; quinidine 0.0125 μM)	Clint, app Ratio (respective to 0 concentration of Quinidine) ([1]; quinidine 0.025 μM)	t1/2 Ratio (respective to 0 concentration of Quinidine) ([1]; quinidine 0.025 μM)	Clint, app Ratio (respective to 0 concentration of Quinidine) ([1]; quinidine 0.05 μM)	t1/2 Ratio (respective to 0 concentration of Quinidine) ([1]; quinidine 0.05 μM)	also measured
COc1ccc2c(c1)[C@]13CCCC[C@@H]1[C@H](C2)N(C)CC3 [DM, (+)-3-methoxy-17-methyl-(9α,13α,14α)-morphinan]	15.4 mL/min/kg	20.5 min	12.1 mL/min/kg	25.6 min	10.6 mL/min/kg	29.6 min	9.5 mL/min/kg	33 min	7.4 mL/min/kg	42.1 min	4.8 mL/min/kg	64.5 min	1.0	1.0	0.79	1.2	0.69	1.4	0.62	1.6	Clint, app Ratio (respective to 0 concentration of Quinidine) ([1]; quinidine 0.1 μM): 0.48; t1/2 Ratio (respective to 0 concentration of Quinidine) ([1]; quinidine 0.1 μM): 2.1; Clint, app Ratio (respective to 0 concentration of Quinidine) ([1]; quinidine 0.2 μM): 0.31; t1/2 Ratio (respective to 0 concentration of Quinidine) ([1]; quinidine 0.2 μM): 3.1
[2H]C([2H])([2H])c1ccc2c(c1)[C@]13CCCC[C@@H]1[C@H](C2)N(C([2H])([2H])[2H])CC3 [D6-Dimemorfan]	48.2 mL/min/kg	6.5 min	30.9 mL/min/kg	10.1 min	23.6 mL/min/kg	13.2 min	17.3 mL/min/kg	18 min	10 mL/min/kg	31.1 min	8.2 mL/min/kg	37.9 min	1.0	1.0	0.64	1.6	0.49	2.0	0.36	2.8	% Δ (D6-Dimemorfan/Dimemorfan) of t1/2 ([1]; quinidine 0 μM): 35%; Clint, app Ratio (D6-Dimemorfan/Dimemorfan) ([1]; quinidine 0 μM): 0.74; % Δ (D6-Dimemorfan/Dimemorfan) of t1/2 ([1]; quinidine 0.0125 μM): 59%; Clint, app Ratio (D6-Dimemorfan/Dimemorfan) ([1]; quinidine 0.0125 μM): 0.61; % Δ (D6-Dimemorfan/Dimemorfan) of t1/2 ([1]; quinidine 0.025 μM): 3%; Clint, app Ratio (D6-Dimemorfan/Dimemorfan) ([1]; quinidine 0.025 μM): 0.96; % Δ (D6-Dimemorfan/Dimemorfan) of t1/2 ([1]; quinidine 0.05 μM): 11%; Clint, app Ratio (D6-Dimemorfan/Dimemorfan) ([1]; quinidine 0.05 μM): 0.90; % Δ (D6-Dimemorfan/Dimemorfan) of t1/2 ([1]; quinidine 0.1 μM): 22%; Clint, app Ratio (D6-Dimemorfan/Dimemorfan) ([1]; quinidine 0.1 μM): 0.82; Clint, app Ratio (respective to 0 concentration of Quinidine) ([1]; quinidine 0.1 μM): 0.21; t1/2 Ratio (respective to 0 concentration of Quinidine) ([1]; quinidine 0.1 μM): 4.8; % Δ (D6-Dimemorfan/Dimemorfan) of t1/2 ([1]; quinidine 0.2 μM): −12%; Clint, app Ratio (D6-Dimemorfan/Dimemorfan) ([1]; quinidine 0.2 μM): 1.11; Clint, app Ratio (respective to 0 concentration of Quinidine) ([1]; quinidine 0.2 μM): 0.17; t1/2 Ratio (respective to 0 concentration of Quinidine) ([1]; quinidine 0.2 μM): 5.8
Cc1ccc2c(c1)[C@]13CCCC[C@@H]1[C@H](C2)N(C)CC3 [Dimemorfan, (+)-(9α,13α,14α)-3,17-dimethylmorphinan]	64.9 mL/min/kg	4.81 min	50.8 mL/min/kg	6.34 min	24.7 mL/min/kg	12.8 min	19.3 mL/min/kg	16.2 min	12.2 mL/min/kg	25.5 min	7.4 mL/min/kg	43.1 min	1.0	1.0	0.78	1.3	0.38	2.7	0.30	3.4	fraction of a dose metabolized [2]: Greater than 98%; Clint, app Ratio (respective to 0 concentration of Quinidine) ([1]; quinidine 0.1 μM): 0.19; t1/2 Ratio (respective to 0 concentration of Quinidine) ([1]; quinidine 0.1 μM): 5.3; Clint, app Ratio (respective to 0 concentration of Quinidine) ([1]; quinidine 0.2 μM): 0.11; t1/2 Ratio (respective to 0 concentration of Quinidine) ([1]; quinidine 0.2 μM): 9.0
